Measured values from PubChem BioAssay (NCI).
Where “and” joins values, the source holds several entries; their conditions need not be identical. Identical values can stand only once.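 Test compounds were applied to cells in 96-well plates for 48 hours at 5 doses. At the GI50, growth is halved. The concentration for full growth arrest is given as TGI.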

How the values were obtained:
Assay in all cases: growth of human tumour cells (NCI), 48 h
K-562 leukemia = test system: K-562 leukemia
RXF 393 renal = test system: RXF 393 renal
UO-31 renal = test system: UO-31 renal
IGROV1 ovarian = test system: IGROV1 ovarian
SNB-19 CNS = test system: SNB-19 CNS
MALME-3M melanoma = test system: MALME-3M melanoma
HCC-2998 colon = test system: HCC-2998 colon
CCRF-CEM leukemia = test system: CCRF-CEM leukemia
HT29 colon = test system: HT29 colon
786-0 renal = test system: 786-0 renal

SMILES | GI50 (K-562 leukemia) | TGI (K-562 leukemia) | GI50 (RXF 393 renal) | TGI (RXF 393 renal) | GI50 (UO-31 renal) | TGI (UO-31 renal) | GI50 (IGROV1 ovarian) | TGI (IGROV1 ovarian) | GI50 (SNB-19 CNS) | TGI (SNB-19 CNS) | GI50 (MALME-3M melanoma) | TGI (MALME-3M melanoma) | GI50 (HCC-2998 colon) [µM] | TGI (HCC-2998 colon) | GI50 (CCRF-CEM leukemia) | TGI (CCRF-CEM leukemia) | GI50 (HT29 colon) | TGI (HT29 colon) | GI50 (786-0 renal) | TGI (786-0 renal)
CCCCCN(CCCCC)CC(O)c1ccc(Cl)c2ccccc12 (centres undefined) | 4.23 µM | 20.8 µM | 2.13 µM | 8 µM | 5.16 µM | 20.6 µM | 4.92 µM | 24.3 µM | 12.7 µM | 30.1 µM | 15.4 µM | 32 µM | 3.34 | 9.72 µM | 10.5 µM | 33.1 µM | 2.24 µM | 20.6 µM | 11.7 µM | 24.8 µM
Fc1ccc(-c2nn3ncccc3c2-c2ccnc(Nc3ccc4c(c3)OCCO4)n2)cc1 | 2.68 µM | > 25 µM | 1.07 µM | 7.22 µM | 0.581 µM | > 25 µM | 0.595 µM | > 11.5 µM | 19.4 µM | > 25 µM | 14.1 µM | > 25 µM | 4.81 | 10.1 µM | 6.22 µM | > 25 µM | 0.933 µM | > 13.6 µM | 2.29 µM | > 25 µM
Nc1nc(-c2cccc(Cl)c2)c(-c2ccc3ncccc3n2)s1 | > 25 µM | > 25 µM | > 25 µM | > 25 µM | 10.1 µM | > 25 µM | 22.4 µM | > 25 µM | > 25 µM | > 25 µM | > 25 µM | > 25 µM | > 25 | > 25 µM | > 25 µM | > 25 µM | > 25 µM | > 25 µM | > 25 µM | > 25 µM
NCCCn1c2c(c3ccc([N+](=O)[O-])cc3c1=O)C(=O)c1cc(Br)ccc1-2 | 0.00813 µM | 0.264 µM | 0.318 µM |  | 0.0575 µM | 0.184 µM | 0.0754 µM | 0.225 µM and 0.0325 µM | 0.0379 µM |  | 0.103 µM |  | 0.154 |  | 0.0033 µM | 0.0159 µM | 0.00556 µM | 0.134 µM | 0.0435 µM and 0.0643 µM | 0.173 µM and 0.387 µM
CC(C)(C)c1cc(NC(=O)Cc2ccc(-c3cnc4cc(-c5cnn(CCN6CCOCC6)c5)ccc4n3)cc2)no1 | 0.216 µM and 0.307 µM and 0.0848 µM | 50 µM and > 100 µM and > 3 µM | 0.179 µM and 0.274 µM and 0.0395 µM | 1.93 µM and 1.45 µM | 0.135 µM and 0.0883 µM |  | 0.106 µM and 0.104 µM | 0.65 µM and 1.11 µM | 2.47 µM and 2.26 µM and 0.279 µM | 50 µM and > 100 µM and > 3 µM | 0.187 µM and 0.278 µM and 0.0505 µM | 11.3 µM and 2.82 µM |  | 50 µM and > 100 µM and > 3 µM | 0.163 µM and 0.388 µM and 0.107 µM | 22.8 µM and > 100 µM and > 3 µM | 0.613 µM and 1.06 µM and 0.116 µM | 50 µM and > 100 µM and > 3 µM | 0.297 µM and 0.764 µM and 0.092 µM | 50 µM and > 100 µM and > 3 µM
Cn1cnc([N+](=O)[O-])c1[Se]c1nc(N)nc2c1ncn2C1OC(CO)C(O)C1O (centres undefined) |  | > 100 µM |  | > 100 µM |  | > 100 µM |  | > 100 µM |  | > 100 µM |  | > 100 µM |  | > 100 µM |  | > 100 µM |  | > 100 µM |  | > 100 µM
COc1ccccc1Cn1cc2c(c1-c1ccccc1)CCc1cnoc1-2 | 0.539 µM | > 100 µM | 2.57 µM | > 100 µM | 3.46 µM | 78.6 µM | 3.6 µM | > 100 µM | 5.4 µM | > 100 µM | 1.39 µM | > 100 µM | 5.48 | > 100 µM | 2.85 µM | > 100 µM | 2.02 µM | 7.3 µM | 4.04 µM | > 100 µM
Cc1ccc(NC(=O)c2sc3nc(C)c(C(O)c4ccccc4)cc3c2N)cc1 (centres undefined) | 0.333 µM | > 100 µM | 0.333 µM | 3.29 µM | 0.72 µM | 41.6 µM | 0.634 µM | 36.8 µM | 0.542 µM | > 100 µM | 0.476 µM | 53.7 µM | 0.818 | 5.73 µM | 0.375 µM | > 49.7 µM | 0.358 µM | 14.8 µM | 1.02 µM | 18.8 µM
O=C(Nc1ccc(Cl)cc1Cl)C(=O)C(C(=O)c1ccncc1)C1OC(=O)c2ccccc21 (centres undefined) |  | > 100 µM |  | > 100 µM |  | > 100 µM |  | > 100 µM |  | > 100 µM |  | > 100 µM |  | > 100 µM |  | > 100 µM |  | > 100 µM |  | > 100 µM
COC(=O)c1c(C)[nH]c(/C=C2\N=C(c3ccc[nH]3)C=C2OC)c1C | 0.764 µM | > 27.5 µM | 0.515 µM | 4.27 µM | 0.113 µM | 0.28 µM | 0.147 µM | 1.62 µM | 1.87 µM | > 100 µM | 0.525 µM | 2.02 µM | 0.668 | 2.78 µM | 0.0501 µM | > 100 µM | 0.0339 µM | > 100 µM | 0.262 µM | 1.4 µM
O=C(O)[C@@H]1CCCCN1Cc1cc2cc3c(cc2c2cc(OCc4ccccc4)ccc12)OCO3 | 36.7 µM | > 100 µM | 6.05 µM | 22.6 µM | 4.77 µM | 17.4 µM | 6.53 µM | 21.4 µM | 2.31 µM | 8.86 µM | 2.8 µM | 9.41 µM | 19.3 | 33.6 µM | 14.9 µM | > 100 µM | 3.24 µM | 15.8 µM | 18.9 µM | 44.9 µM
COc1cccc(N2C(=O)[C@H]3CC(C)c4c([nH]c5ccccc45)[C@H]3C2=O)c1 (some centres undefined) |  | > 100 µM |  | 38.8 µM |  | > 100 µM |  | > 100 µM |  | > 100 µM |  | > 100 µM |  | > 100 µM |  | > 100 µM |  | > 100 µM |  | 50.5 µM
COC(=O)C(=O)C(C(=O)C=C(C)C)C(=O)C(=O)Nc1ccc(C)cc1C (centres undefined) |  | > 100 µM |  | > 100 µM |  | > 100 µM |  | > 100 µM |  | > 100 µM |  | > 100 µM |  | > 100 µM |  | > 100 µM |  | > 100 µM |  | > 100 µM
CC1(C)N=C(N)N=C(N)N1c1ccc(OCc2ccc(S(=O)(=O)F)c(Cl)c2)c(Cl)c1 | 0.448 µM | > 100 µM | 18.7 µM | > 100 µM | 46 µM | > 100 µM | 0.123 µM | > 100 µM | 6.76 µM | > 100 µM | 1.97 µM | > 100 µM | 4.97 | > 100 µM | 1.06 µM | > 100 µM | 0.845 µM | > 100 µM | 0.814 µM | > 100 µM
CON(C)C(=O)N1N=C(c2cc(F)ccc2F)SC1(CCCN)c1ccccc1 (centres undefined) | < 0.01 µM | 15.1 µM and 14.3 µM | < 0.01 µM | 0.756 µM | 3.37 µM and 2.21 µM | 21.8 µM and 20.5 µM | 6.28 µM and 4.85 µM | 32.2 µM and 27.5 µM | 0.109 µM and < 0.0132 µM | 23.2 µM and 23.7 µM | 13.3 µM and 10.5 µM | 31.6 µM and 28.3 µM | < 0.01 | 4.34 µM and 4.41 µM | 0.0115 µM and < 0.01 µM | 22.4 µM and 21.6 µM | 0.0301 µM and < 0.01 µM | 5.05 µM and 10.8 µM | 0.0574 µM and < 0.01 µM | 18.1 µM and 18.5 µM
CC[C@H](C)[C@H]1O[C@]2(C=C[C@@H]1C)C[C@@H]1C[C@@H](C/C=C(\C)[C@@H](O[C@H]3C[C@H](OC)[C@@H](O[C@H]4C[C@H](OC)[C@@H](NC)[C@H](C)O4)[C@H](C)O3)[C@@H](C)/C=C/C=C3\CO[C@@H]4[C@H](O)C(C)=C[C@@H](C(=O)O1)[C@]34O)O2 | 1.97 µM | 4.22 µM | 2.03 µM | 4.47 µM | 1.69 µM | 4.13 µM | 3.06 µM | 12 µM | 4.27 µM | 16.9 µM | 1.85 µM | 3.69 µM | 1.89 | 3.36 µM | 1.87 µM | 4.02 µM | 1.88 µM | 4.14 µM | 1.26 µM | 2.94 µM
COc1ccc(/C(Cl)=C(\C=O)c2ccc([N+](=O)[O-])cc2)cc1 |  | > 37.5 µM |  | 38.6 µM |  | 56.2 µM |  | 53.3 µM |  | > 31.6 µM |  | 68.1 µM |  | 62.6 µM |  | 23.2 µM |  | 29.9 µM |  | 31.6 µM
C/C(=N\Nc1ccc(Cl)cn1)c1ccccn1 | 0.029 µM | > 100 µM | 0.188 µM | 24.9 µM | 0.0344 µM | 1.86 µM | 0.0823 µM | 38.1 µM | 0.411 µM | > 100 µM | 0.111 µM | 44.1 µM | 0.554 | 68.2 µM | 0.0273 µM | > 100 µM | < 0.0419 µM | > 59.9 µM | 0.206 µM | > 33.9 µM
Cc1ccc2c3c(c(=O)[nH]c2c1)C1(C(C#N)=C(N)O3)c2cc(Br)ccc2-c2ccc(Br)cc21 | 2.96 µM | 12.6 µM | 1.53 µM | 3.13 µM | 1.33 µM | 2.74 µM | 1.6 µM | 3.75 µM | 2.12 µM | 6.01 µM | 1.51 µM | 3.15 µM | 2.15 | 4.74 µM | 3.12 µM | 15 µM | 2.25 µM | 6.06 µM | 2.46 µM | 6.01 µM
